We go through 9 compounds from patent publication US12038447B2 (priority 2017, dated 2024).

Data set [1] can be described thus: pH titration of rinsed rSAM layers, ellipsometric thickness. Format: physicochemical. The following applies: on MBA SAMs.
Data set [2] deals with human serum albumin (HSA) and lysozyme (LYZ). Nature of the data set: Protein resistance of E0-6 rSAMs on MHA gold, IRAS amide I and ellipsometry. Conditions: HSA or LYZ 1 mg/mL, pH 8, rSAM on MHA gold. Format: binding.
The nature of data set [3]: Fluorescence recovery after photobleaching (FRAP), lateral fluidity. Format: physicochemical. The following applies: 1 mol % FAM tagged amidine in E2 on COOH quartz.
In the next data set the test system is MC3T3-E1 cells. Nature of the data set: Cell attachment and detachment on GRGDS functionalized rSAMs. The following applies: for reduction in average projected cell area on MDSA versus MBA-SAMs: absence of GRGDS 3 in the layer; for average projected cell area: 5 hours.
Data set [4] can be described thus: Critical micelle concentration from assembly kinetics, in situ ellipsometry. Format: physicochemical. The following applies: pH 9 buffer.
Data set [5] is described as follows: Air and rinse stability of rSAMs, rinsing and drying cycles. Conditions: rSAM on MHA-gold. Format: physicochemical.
A short description of data set [6]: Water solubility (qualitative). Format: physicochemical.
A further data set addresses HA. Conditions: cited from earlier work.
Data set [7] concerns deactivated influenza virus H5N1. Format: binding, Influenza A Virus, A/Anhui/01/2005(H5N1).
In data set [8] the test system is Influenza A H5N1 (A/Anhui/2005) hemagglutinin (HA). Format: binding.
The mark [9] stands for this setting: 100 μM added to cells on XGRGDS3,filler2=0.25 on MBA SAMs, 30 minutes.

Read-outs that look alike come from different tables or passages of the source.

In general, Kd refers to the constant that tells how readily two partners part at equilibrium. Broadly, the Ki is the dissociation constant of the complex between target and ligand, obtained from inhibition or displacement.

Turning to `N=C(N)c1ccc(OCCCCCCCCCCOc2ccc(CCOCCOCCO)cc2)cc1` [E2, 4-[10-(4-{2-[2-(2-Hydroxy-ethoxy)-ethoxy]-ethyl}-phenoxy)-decyloxy]-benzamidine], the “pH resistance of rinsed layers” value in data set [1] was “up to 6”. Besides, in [2], the “reduction of protein adsorption based on amide I band intensity” value is “more than 50%”. Also, the “diffusion coefficient from FRAP” value in [3] is recorded as “matching literature values of supported lipid bilayers”. In addition, the “reduction in average projected cell area on MDSA versus MBA-SAMs” value with MC3T3-E1 cells was 28%.

On to `N=C(N)c1ccc(OCCCCCCCCCCOc2ccc(CCOCCOCCOCCOCCO)cc2)cc1` [E4, 4-(10-{4-[2-(2-{2-[2-(2-Hydroxy-ethoxy)-ethoxy]-ethoxy}-ethoxy)-ethyl]-phenoxy}-decyloxy)-benzamidine], for which the “protein adsorption / resistance” value in [2] was “less resistant”. For the same compound, the “reduction in average projected cell area” value in the data set with MC3T3-E1 cells (100 μM added to cells on XGRGDS3,filler2=0.25 on MBA SAMs, 37° C., 30 minutes) stood at 65%. In addition, the “cell shape after addition” value with MC3T3-E1 cells (setting [9]) is listed as “dramatic transition from a spread-out cell shape to a non-adhesive round shape”. For the same compound, in the data set on MC3T3-E1 cells (XGRGDS3,filler2=0 on MDSA-SAMs), the “surface coverage by adherent cells normalized on average projected cell area” value was 12% and the “average projected cell area” value is 1634 μm^2. Further, the “reduction in average projected cell area on MDSA versus MBA-SAMs” value in the data set with MC3T3-E1 cells is on record as “no significant differences”. The “cells after replacing medium with fresh medium” value in the data set with MC3T3-E1 cells (after 100 μM exposure, fresh medium, 37° C., 24 hrs) is recorded as “retain their adhesive characteristic”. Also, the “critical micelle concentration (CMC)” value in [4] was “approximately 5 μM”.

`N=C(N)c1ccc(OCCCCCCCCCCOc2ccc(CCOCCOCCOCCOCCOCCOCCO)cc2)cc1` [E6, 4-{10-[4-(2-{2-[2-(2-{2-[2-(2-Hydroxy-ethoxy)-ethoxy]-ethoxy}-ethoxy)-ethoxy]-ethoxy}-ethyl)-phenoxy]-decyloxy}-benzamidine]: the “protein adsorption / resistance” value in [2] is given as “less resistant”. Besides, the “decrease in layer thickness after 2 cycles of rinsing with pH 8 buffer and drying” value in data set [5] was determined as 9 Å.

Regarding `C=C(C(=O)CNN[C@@H](CCCNC(=N)N)C(=O)NCC(=O)N[C@@H](CC(=O)O)C(=O)N[C@@H](CO)C(=O)O)c1cn(COCCOCCc2ccc(OCCCCCCCCCCOc3ccc(C(=N)N)cc3)cc2)nn1` [GRGDS 3, (2S,5S,11S)-16-(1-((2-(4-((10-(4-carbamimidoylphenoxy)decyl)oxy)phenethoxy)ethoxy)methyl)-1H-1,2,3-triazol-4-yl)-5-(carboxymethyl)-11-(3-guanidinopropyl)-2-(hydroxymethyl)-4,7,10,15-tetraoxo-3,6,9,12,13-pentaazaheptadec-16-enoic acid], the entries for the “average projected cell area” value in the data set with MC3T3-E1 cells (XGRGDS3,filler2=0.1 on MDSA-SAMs) and in the data set with MC3T3-E1 cells (XGRGDS3,filler2=0.25 on MDSA-SAMs) were 1183 μm^2 and 1282 μm^2, respectively. For the same compound, in the data set with MC3T3-E1 cells (XGRGDS3=0-0.25, 5 hours), the “coverage of adhered cells versus amount in layer” value is reported as “correlated with the increasing amount of GRGDS3”. Also, the “average projected cell area versus surface without GRGDS3” value is “an increase in average projected cell area” in the data set with MC3T3-E1 cells (with filler 1, XGRGDS3=0.25 on MBA SAMs); “a decrease in average projected cell area” in the data set on MC3T3-E1 cells (with filler 2, XGRGDS3=0.1 and 0.25 on MDSA SAMs). Also, the “average projected cell area versus GRGDS density” value in the data set with MC3T3-E1 cells (with filler 1 on MDSA SAMs) and with MC3T3-E1 cells (with filler 2 on MBA SAMs) was “no distinct differences” throughout.

On to `N=C(N)NCCC[C@H](N)C(=O)O` [L-Arginine, reference compound], for which the “cell shape after addition” value with MC3T3-E1 cells (setting [9]) is given as “most of the cells remained the spread-out shape”.

`Cl.N=C(N)c1ccc(OCCCCCCCCCCOc2ccc(CCO)cc2)cc1` [compound 1, Amino(4-(10-(4-(2-hydroxyethyl)phenoxy)decyloxy)phenyl)methaniminium chloride]: the results for the “water solubility” value in data set [6] and in data set [6] (listed as E0) were “poorly water-soluble” and “poorly water soluble”, respectively. Also, the “protein adsorption / resistance” value in data set [2] is on record as “most pronounced protein adsorption”.

Take `CC(=O)NC1C(O)CC(OCCc2cn(CCOCCOCCc3ccc(OCCCCCCCCCCOc4ccc(C(=N)N)cc4)cc3)nn2)(C(=O)O)OC1C(O)C(O)CO` (stereo not drawn) [compound 2, 5-Acetylamino-2-[2-(1-{2-[2-(2-{4-[10-(4-carbamimidoyl-phenoxy)-decyloxy]-phenyl}-ethoxy)-ethoxy]-ethyl}-1H-[1,2,3]triazol-4-yl)-ethoxy]-4-hydroxy-6-(1,2,3-trihydroxy-propyl)-tetrahydro-pyran-2-carboxylic acid]: the “water solubility” value in [6] was “highly water soluble”.

Take `CO[C@]1(C(=O)O)C[C@H](O)[C@@H](NC(C)=O)[C@H]([C@H](O)[C@H](O)CO)O1` [α-methyl sialoside]: at HA (read-out: Kd per SA or HA monomer unit), the Kd was 2000 µM.

As to mucin, the “effect of mucin masking on virus adsorption to rSAM-2” value in [7] was “effectively suppressed”. Besides, the “effect of preincubating HA with mucin on HA binding to rSAM-2” value in data set [8] is reported as “effectively suppressed”. Moreover, on HA (read-out: Ki of binding to HA), the inhibition constant Ki was 2 µM.
